Source: article PMC12693701, “Glucosinolate-Derived Metabolites from Barbarea vulgaris (Brassicaceae): Evaluation of Antimicrobial, Antioxidant, and Anti-Inflammatory Potentials” (Molecules, 2025)

Legend:
[1] = DPPH radical scavenging assay; conditions: mean ± SD
Protocol: The DPPH assay was used to assess the ability of the tested compounds to scavenge reactive radical species. Stock solutions of the investigated compounds were prepared in DMSO and then diluted with methanol to a final volume of 1000 µL. An equal volume of a 50 µM DPPH solution in methanol was then added to the prepared mixture. The final concentrations of the test compounds were 25, 50, and 100 µM. After thorough mixing, the samples were incubated in the dark at room temperature for 20 to 60 min. Methanol was used as a blank, and absorbance was measured at 517 nm after incubation. All measurements were performed in triplicate.

[2] = biological target: T1, Type I-B soybean lipoxygenase (Glycine max, UniProt P08170); test: LOX inhibition assay; type: biochemical; conditions: 100 µM; mean ± SD; read-out: Percentage of LOX Inhibition
T1 sequence (P08170 1-839): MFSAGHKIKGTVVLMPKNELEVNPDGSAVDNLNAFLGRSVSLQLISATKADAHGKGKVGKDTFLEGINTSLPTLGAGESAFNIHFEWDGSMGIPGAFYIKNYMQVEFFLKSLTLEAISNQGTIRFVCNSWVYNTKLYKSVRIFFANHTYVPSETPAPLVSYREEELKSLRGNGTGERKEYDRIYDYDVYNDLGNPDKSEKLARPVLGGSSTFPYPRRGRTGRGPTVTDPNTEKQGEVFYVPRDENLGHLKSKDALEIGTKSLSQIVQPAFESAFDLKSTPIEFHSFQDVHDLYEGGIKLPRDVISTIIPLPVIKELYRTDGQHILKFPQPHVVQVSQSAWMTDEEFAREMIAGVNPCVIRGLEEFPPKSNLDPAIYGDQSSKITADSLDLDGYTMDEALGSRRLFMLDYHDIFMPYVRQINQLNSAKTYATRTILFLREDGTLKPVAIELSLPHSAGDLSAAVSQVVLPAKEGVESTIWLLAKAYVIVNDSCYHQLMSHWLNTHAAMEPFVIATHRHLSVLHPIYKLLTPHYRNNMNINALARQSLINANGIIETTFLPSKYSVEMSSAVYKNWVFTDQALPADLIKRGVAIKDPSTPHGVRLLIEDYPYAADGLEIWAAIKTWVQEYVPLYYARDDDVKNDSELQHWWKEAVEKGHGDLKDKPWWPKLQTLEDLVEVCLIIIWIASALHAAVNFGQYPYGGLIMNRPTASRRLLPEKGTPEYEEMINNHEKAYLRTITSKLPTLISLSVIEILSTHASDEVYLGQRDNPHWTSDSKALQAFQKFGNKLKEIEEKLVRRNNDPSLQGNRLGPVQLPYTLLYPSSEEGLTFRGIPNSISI
Protocol: Type I-B soybean lipoxygenase is a commonly used enzyme for studying the anti-inflammatory properties of various compounds [19]. The lipoxygenase (LOX) inhibition assay measures the enzyme’s ability to convert sodium linoleate to 13-hydroperoxylinoleic acid. The inhibition of the enzyme by the investigated compounds was determined by measuring the absorbance at 234 nm for each prepared sample. Specifically, the test compound, Tris buffer, an enzyme solution (5 × 10^3 units/mL in saline), and sodium linoleate (3 mM in Tris buffer, pH 9), were added to a UV cuvette, and the absorbance was recorded. […] All measurements were performed in triplicate.

B. subtilis ATCC 6633 = test: Inhibition of biofilm formation (crystal violet); type: cell-based, Bacillus subtilis
Protocol: (§1) The procedure involved preparing 96-well microtiter plates (Sarstedt, Nümbrecht, Germany) by adding 100 μL of Mueller-Hinton nutrient broth to each well. A 10 μL aliquot of bacterial suspension (adjusted to 1.0 McFarland for Gram-positive bacteria and 0.5 McFarland for Gram-negative bacteria) was added to the wells. The plates were then incubated at 37 °C for 48 h to allow biofilm formation. After incubation, the wells were washed twice with 200 μL of sterile 0.85% saline to remove non-adherent and weakly adherent cells. Biofilms formed by the adherent bacteria were fixed with 100 μL of methanol until fully evaporated. The biofilms were then stained using 0.1% (w/v) crystal violet (Fluka Chemie AG, Buchs, Switzerland) and left at room temperature for 20 min. After staining, excess dye was washed off with deionized water, followed by 96% ethanol. Controls included wells containing only nutrient broth to check for sterility and nonspecific binding. Background absorbance from the sterile medium, fixative, and dye was subtracted from the OD readings of the test samples. All experiments were performed in triplicate.
(§2) To assess the inhibition of biofilm formation, 96-well microtiter plates (Sarstedt, Nümbrecht, Germany) were prepared by dispensing 100 μL of Mueller-Hinton broth into each well. From stock solutions of tested compounds (at 10 mg/mL), 100 μL was added to the first row of the plate, followed by twofold serial dilutions (from 5 to 0.039 mg/mL) using a multichannel pipette (Eppendorf AG, Hamburg, Germany). Subsequently, 10 μL of fresh bacterial suspension (adjusted to 0.5 McFarland for Gram-negative and 1.0 McFarland for Gram-positive bacteria) was added to each well. The plates were incubated at 37 °C for 48 h. After incubation, the contents of the wells were carefully removed by tapping, and the remainder of the experiment was conducted following the procedure described above.
(§3) Controls consisted of wells containing only broth or broth with the tested compounds to assess sterility and nonspecific binding. Background absorbance was subtracted from test readings as described earlier. All experiments were performed in triplicate, and tetracycline (Sigma-Aldrich, St. Louis, MO, USA), dissolved in nutrient broth, was used as a reference compound.

S. aureus ATCC 25923 = test: Inhibition of biofilm formation (crystal violet); type: cell-based, Staphylococcus aureus
Protocol: as §1, §2, §3

P. mirabilis = test: Inhibition of biofilm formation (crystal violet); type: cell-based, Proteus mirabilis
Protocol: as §1, §2, §3

S. enterica = test: Inhibition of biofilm formation (crystal violet); type: cell-based, Salmonella enterica; conditions: biofilm coverage reduced by 90%
Protocol: as §1, §2, §3

K. pneumoniae = test: Inhibition of biofilm formation (crystal violet); type: cell-based, Klebsiella pneumoniae
Protocol: as §1, §2, §3

[3] = biofilm coverage reduced by 50%
[4] = biofilm coverage reduced by 90%

O=c1c(O)c(-c2ccc(O)c(O)c2)oc2cc(O)cc(O)c12 [Quercetin, reference compound]
DPPH Scavenging Ability ([1]; 25 µM, 20 min): 95.3 ± 0.8%
DPPH Scavenging Ability ([1]; 25 µM, 60 min): 95.1 ± 0.9%
DPPH Scavenging Ability ([1]; 50 µM, 20 min): 96.8 ± 1.0%
DPPH Scavenging Ability ([1]; 50 µM, 60 min): 96.5 ± 0.9%
DPPH Scavenging Ability ([1]; 100 µM, 20 min): 95.1 ± 0.9%
DPPH Scavenging Ability ([1]; 100 µM, 60 min): 95.4 ± 0.8%
inhibition at 100 µM [2]: 92 ± 0.9%

CN(C)[C@@H]1C(O)=C(C(N)=O)C(=O)[C@@]2(O)C(O)=C3C(=O)c4c(O)cccc4[C@@](C)(O)[C@H]3C[C@@H]12 [Tetracycline, reference compound]
BIC50 (B. subtilis ATCC 6633; [3]): ˂15.6 µg/mL
BIC90 (B. subtilis ATCC 6633; [4]): 15.6 µg/mL
BIC50 (S. aureus ATCC 25923; [3]): 250 µg/mL
BIC90 (S. aureus ATCC 25923; [4]): 300 µg/mL
BIC50 (P. mirabilis; [3]): 320 µg/mL
BIC90 (P. mirabilis; [4]): >1000 µg/mL
BIC90 (S. enterica): 180 µg/mL
BIC50 (K. pneumoniae; [3]): 6 µg/mL
BIC90 (K. pneumoniae; [4]): 125 µg/mL
